For 66 compounds, AC40 results are on record in PubChem BioAssay AID602296 (Broad Institute, 2012).

Molecules are shown by their SMILES. Records with an inconclusive call do not appear. Calls of active or inactive are those of the source.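 Rule for the calls: active = fitted activation curve crossing 40% at a concentration no higher than the sample's top valid tested dose; inconclusive = flat fitted curve at 30% to 70% activation, or poor curve fit; inactive = signal decrease, flat curve within 30%, or the rest.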 Peptide text beside a SMILES is read from it. * marks the point of attachment. Boc = CC(C)(C)OC(=O)*; OtBu = CC(C)(C)O* Where only a bound is given, the exact number is not on record here.

In the assay the test system is NIH3T3-HGL HSF-1 response element luciferase, 48 h. Nature of the assay: HSF-1 reporter activators over prolonged exposure, confirmation, cell-based, mouse, luciferase, cherry-pick, dose (AID 602296).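 Note: test compounds applied by themselves with no MG132 co-treatment.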

Regarding `N#Cc1ccc(Cl)cc1NC(=O)CNCc1cccs1`, the AC40 was > 26 µM (inactive). Take `Cc1ccc(-n2cc(CNCCN3CCOC3=O)c(-c3cccc(C)c3)n2)cc1`: the AC40 was 17.4 µM. In the case of `Nc1ncnc2c1CCC2`, the AC40 is > 26 µM (inactive). With `Cc1ccnc(N2CCCC(C(=O)Nc3ccc(C)c(C)c3)C2)n1` (stereo unspecified), the AC40 was > 26 µM (inactive). Next, `N#CCCn1cc(C=C(C#N)C#N)c(-c2ccc(-c3ccccc3)cc2)n1`: > 12 µM (inactive); `COCCCNC(=O)CCn1c(=O)c2ccccc2n(CC(=O)Nc2cc(Cl)ccc2C)c1=O`: > 26 µM (inactive); `Cc1cccc(N2CCN(c3cccc(C)c3)C2c2cccnc2)c1`: > 12 µM (inactive). For `COC(=O)CC/C(O)=C1/C(=N)CC(C)(C)CC1=O` the value was > 12 µM (inactive); for `Cc1ccc(NC2=NC3(CCCC3)N=C(N)N2)c(C)c1`, > 26 µM (inactive); for `NC(=O)Cc1ccc2c(c1)[nH]c1ccccc12`, > 26 µM (inactive). Next, `S=C(Nc1ccc(Cl)cc1)Nc1cccc2cnccc12`: > 26 µM (inactive). Turning to `Cc1ccc(SCCCCN2CCOCC2)cc1`, the AC40 is 23.9 µM.

For `Cc1ccc(C)c(CN2C(=O)COc3ccccc32)c1`, the AC40 is > 26 µM (inactive). Next, `CCOc1ccc(CN(C)C(=O)CNC(=O)c2ccc3ccccc3c2)cc1OC`: > 26 µM (inactive); `COc1cccc(N=Nc2c(O)[nH]c(=S)[nH]c2=O)c1`: 10.1 µM. `Cc1cccc(N=Nc2c(C)c(C#N)c(O)[nH]c2=O)c1`: the AC40 was > 26 µM (inactive).

Consider `O=C(O)c1csc(N/N=C/c2ccc(Br)cc2)n1`, for which the AC40 is > 26 µM (inactive). Next, `Clc1ccc(-c2nc(/C=N/N3CCOCC3)c3ccccn23)cc1`: 18.3 µM; `C=CCn1c(SCC(=O)Nc2cc(NC(C)=O)ccc2OC)nnc1-c1cccnc1`: > 26 µM (inactive). Consider `CC1(C)CC(=O)C=C(NC2=CC3OC(c4ccccc4)OCC3OC2=O)C1` (stereo unspecified), for which the AC40 is 13.2 µM. Next, `Cc1sc2nc(C)n(/N=C/c3ccc(O)cc3O)c(=O)c2c1C`: > 26 µM (inactive); `Cc1ccc(/C=C2\Oc3cc(OC(=O)N4CCOCC4)ccc3C2=O)cc1`: > 26 µM (inactive); `C=CCOc1ccc(-c2nc3c(c(=O)[nH]c(=O)n3Cc3ccccc3)n2CCCOC)cc1`: > 26 µM (inactive). As to `COC(=O)C(C)Sc1ncnc2c1nnn2-c1ccc(F)cc1` (stereo unspecified), the AC40 was 5.57 µM. On to `CCN1C(=O)CC(N2CCN(c3ccc(C(=O)c4ccccc4)cc3)CC2)C1=O` (stereo unspecified), for which the AC40 is 3.85 µM. For `CC(C)NC(=O)CN(C(=O)CCC(=O)Nc1nccs1)c1ccc2c(c1)OCO2` the value was > 26 µM (inactive); for `CC(Oc1ccc(F)cc1Br)c1nc2ccccc2c(=O)[nH]1` (stereo unspecified), 17.3 µM. For `COCCCn1c(Cc2csc(Nc3ccc(F)cc3)n2)nnc1SCC(N)=O` the value was > 26 µM (inactive). For `Cc1cc(C)cc(Oc2ccccc2/C=C\C(=O)O)c1` the value was > 26 µM (inactive); for `Cc1nc(SCCOc2ccc(F)cc2)c2ccccc2n1`, 3.44 µM. As to `Cc1cc(C)n(CC(O)COc2ccc(Cl)cc2Cl)n1` (stereo unspecified), the AC40 was 5.12 µM.

Consider `O=[N+]([O-])c1cc([N+](=O)[O-])c(Oc2c(F)cccc2F)cc1NN1CCCCC1`, for which the AC40 was > 26 µM (inactive). With `COc1ccc(C(=O)CC(=O)C(=O)Nc2cc(OC)c(OC)c(OC)c2)cc1`, the AC40 was > 26 µM (inactive).

Turning to `C/C(Cl)=C/Cc1c(C)[nH]c2ccc(C)cc2c1=O`, the AC40 is 11.2 µM. Next, `Cc1ccc(C(=O)NNC(=O)c2ccccc2-n2cccc2)cc1`: > 26 µM (inactive); `N#C/C(=C(\O)C(F)(F)F)c1nnc2n1CCCCC2`: > 26 µM (inactive). Next, `O=C1c2cccc3cccc(c23)C(=O)N1OS(=O)(=O)c1ccccc1`: 16 µM; `Cc1cccc(N2CCN(C(=O)CSCc3c(C)noc3C)CC2)c1C`: 20.1 µM; `Cn1c(=O)c(/C=C/c2ccc(F)cc2)nc2ccccc21`: 1.99 µM. Take `CCn1nc(C)cc1C(=O)Sc1ccc(Cl)cc1Cl`: the AC40 is 14.5 µM. On to `O=C(O)CSc1nnnn1-c1ccc2c(c1)OCCO2`, for which the AC40 is > 26 µM (inactive). As to `COC(=O)C1NN=C(C(=O)c2ccc(Cl)cc2)C1c1ccc(OC)cc1` (stereo unspecified), the AC40 is > 26 µM (inactive). For `Cn1c(CN2CCN(C(=O)c3ccc(F)cc3)CC2)nc2cc([N+](=O)[O-])ccc21`, the AC40 is > 26 µM (inactive). Next, `Cc1cccc(NC(=O)CSc2nnc(-c3ccco3)c(-c3ccco3)n2)c1C`: > 26 µM (inactive). For `O=C1CCCN2N=C(SCC(=O)Nc3ccc(Br)cc3)SC2=N1` the value was > 26 µM (inactive).

For `COC(=O)c1nnn(CC(=O)NC(=O)Nc2ccc(F)cc2)c1C(=O)OC`, the AC40 was > 26 µM (inactive).

Turning to `O=C(NCc1ccc(N2CCCC2=O)cc1)Nc1ccccc1`, the AC40 was > 26 µM (inactive). Regarding `CC(OC(=O)/C=C/c1ccc2ccccc2n1)C(=O)NCc1ccccc1` (stereo unspecified), the AC40 is 25.9 µM. As to `Cc1occc1C(=O)NNS(=O)(=O)c1ccc([N+](=O)[O-])cc1`, the AC40 was > 26 µM (inactive). For the compound `COc1cccc(N=CC2=C(O)CC(C)(C)CC2=O)c1`, the AC40 is > 26 µM (inactive).

As to `COc1ccc(-c2nc3scc(-c4ccccc4)n3n2)cc1`, the AC40 was 3.34 µM. For `C=CCn1c(=O)c2ccccc2n2c(SCC(=O)Nc3sc(C)c(CC)c3C(=O)OCC)nnc12`, the AC40 was > 26 µM (inactive). As to `CC(=O)NC(=O)NC1OC(=O)C(Cl)=C1Cl` (stereo unspecified), the AC40 is > 26 µM (inactive). For the compound `COc1ccc(C(=O)NCC(=O)OCC(=O)c2ccc3c(c2)NC(=O)CO3)cc1`, the AC40 was > 26 µM (inactive). As to `Cc1ccccc1CC(=O)NC1CCCc2ccccc21` (stereo unspecified), the AC40 was > 26 µM (inactive). For `CCOc1cc(C(=S)N2CCOCC2)ccc1OS(=O)(=O)c1ccc(C)cc1` the value was > 26 µM (inactive).

With `C/C(=N\NC(=O)c1cccc(N/N=C(\C)c2cc(O)ccc2O)c1)c1cc(O)ccc1O`, the AC40 was > 12 µM (inactive). Next, `CNc1nc(SC(C)C(=O)Nc2ccc(Cl)c(Cl)c2)nc(N2CCOCC2)n1` (stereo unspecified): > 26 µM (inactive); `O=C(CSc1nc2nccnc2c(=O)n1Cc1cccs1)Nc1ccccc1F`: 9.52 µM. Turning to `COC(=O)C(Cc1ccc(O)cc1)NC(=O)C(CC(=O)OC(C)(C)C)NC(=O)OC(C)(C)C` (stereo unspecified) (Boc-Asp(OtBu)-Tyr-OMe; configuration not given here), the AC40 was 16.5 µM. As to `COC(=O)c1cc(OC)c(OC)cc1NC(=S)NC(=O)c1ccco1`, the AC40 is > 26 µM (inactive). Next, `COc1ccc(CCNc2oc(-c3ccccc3OC)nc2C#N)cc1`: > 26 µM (inactive); `CCCSc1nnc2n(-c3ccccc3OC)c(=O)c3c4c(sc3n12)CCC4`: > 26 µM (inactive). Next, `Nn1cnnc1N/N=C/c1cc([N+](=O)[O-])c(Cl)cc1Cl`: > 26 µM (inactive). As to `COC(=O)c1ccc(C(=O)OC)c(NC(=O)C(C)(C)C)c1`, the AC40 is > 26 µM (inactive). As to `CCOC(=O)C1CCN(C(=O)c2ccc3c(Cl)c4c(nc3c2)CCCC4)CC1`, the AC40 is > 26 µM (inactive).
